Reference: ChEMBL document CHEMBL1201862, “PubChem BioAssay data set” (2004)
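Where inhibition never reached the appropriate level, the endpoint shown equals the highest concentration tested. Otherwise, values were interpolated linearly from a five-concentration, 48-hour dose response in 96-well plates. The concentration for 50% growth inhibition is given as GI50.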 Active and inactive are the calls of the source. Cut-off read from the data, not from the text of the source: active = GI50 up to about 1.1 µM and inactive = higher.

Columns and labels:
Assay in all cases: NCI tumour cell line growth inhibition, 48 h
SNB-19 = system: SNB-19
SF-295 = system: SF-295
K562 = system: K562
NCI-H460 = system: NCI-H460
HCT-116 = system: HCT-116
DLD-1 = system: DLD-1
TK-10 = system: TK-10
HCC 2998 = system: HCC 2998
A549 = system: A549
RXF 393 = system: RXF 393
ACHN = system: ACHN
A498 = system: A498
LXFL 529 = system: LXFL 529
SK-MEL-28 = system: SK-MEL-28
OVCAR-5 = system: OVCAR-5
KM12 = system: KM12
NCI-H522 = system: NCI-H522

Measured: GI50

Cc1nc2c(nc1C)C(=O)c1cc(O)ccc1C2=O
inactive: SNB-19 99.1 µM | SF-295 > 87.1 µM | K562 > 70.3 µM | NCI-H460 38.2 µM | HCT-116 77.6 µM | DLD-1 > 51.3 µM | TK-10 > 100 µM | HCC 2998 > 67.6 µM | A549 77.6 µM | RXF 393 > 100 µM | ACHN > 100 µM | A498 > 69.8 µM | LXFL 529 > 100 µM | SK-MEL-28 98.4 µM | OVCAR-5 > 100 µM | KM12 > 100 µM | NCI-H522 57.4 µM

Cc1cccc(-c2nnc3s/c(=C\c4ccc(N(C)C)cc4)c(=O)n23)c1
inactive: SNB-19 > 100 µM | SF-295 > 100 µM | K562 > 100 µM | NCI-H460 > 100 µM | HCT-116 > 100 µM | DLD-1 > 100 µM | TK-10 > 100 µM | HCC 2998 > 100 µM | A549 > 100 µM | RXF 393 > 100 µM | ACHN > 100 µM | A498 > 100 µM | LXFL 529 > 100 µM | SK-MEL-28 > 100 µM | OVCAR-5 > 100 µM | KM12 > 100 µM | NCI-H522 > 100 µM

N[C@H](C(=O)O)[C@@H](Cl)CC(=O)O
inactive: SNB-19 > 100 µM | SF-295 > 100 µM | K562 > 100 µM | NCI-H460 > 100 µM | HCT-116 > 100 µM | DLD-1 > 100 µM | TK-10 > 100 µM | HCC 2998 > 100 µM | A549 > 100 µM | RXF 393 > 100 µM | ACHN > 100 µM | A498 > 100 µM | LXFL 529 > 100 µM | SK-MEL-28 > 100 µM | OVCAR-5 > 100 µM | KM12 > 100 µM | NCI-H522 > 100 µM

COc1cccc2c1CCc1ccccc1CC2=O
inactive: SNB-19 > 100 µM | SF-295 > 100 µM | K562 > 100 µM | NCI-H460 > 100 µM | HCT-116 > 100 µM | DLD-1 > 100 µM | TK-10 > 100 µM | HCC 2998 > 100 µM | A549 > 100 µM | RXF 393 > 100 µM | ACHN > 100 µM | A498 > 100 µM | LXFL 529 > 100 µM | SK-MEL-28 > 100 µM | OVCAR-5 > 100 µM | KM12 > 100 µM | NCI-H522 > 100 µM

Oc1cc(CN2CCOCCOCCOCCOCC2)c(O)cc1CN1CCOCCOCCOCCOCC1
inactive: SNB-19 > 100 µM | SF-295 > 100 µM | K562 24.4 µM | NCI-H460 > 100 µM | HCT-116 22.9 µM | DLD-1 22.1 µM | TK-10 > 56.2 µM | HCC 2998 > 100 µM | A549 > 100 µM | RXF 393 23.8 µM | ACHN 23.9 µM | A498 > 75.3 µM | LXFL 529 21.1 µM | SK-MEL-28 24 µM | OVCAR-5 22.8 µM | KM12 > 100 µM | NCI-H522 11.8 µM

CN(C)c1nc(N(C)C)n2nc(-c3ccccc3[N+](=O)[O-])nc2n1
inactive: SNB-19 > 100 µM | SF-295 > 100 µM | K562 > 100 µM | NCI-H460 78.7 µM | HCT-116 35.6 µM | DLD-1 48.5 µM | TK-10 > 100 µM | HCC 2998 > 100 µM | A549 > 100 µM | RXF 393 > 100 µM | ACHN > 100 µM | A498 > 100 µM | LXFL 529 86.3 µM | SK-MEL-28 > 100 µM | OVCAR-5 > 100 µM | KM12 > 100 µM | NCI-H522 > 100 µM

C[Si](C)(C)/C=C/CCC(C=O)(CCCl)c1ccccc1 (stereo unspecified)
inactive: SNB-19 42.7 µM | SF-295 21.1 µM | K562 25 µM | NCI-H460 31.6 µM | HCT-116 14.1 µM | DLD-1 29.5 µM | TK-10 56.1 µM | HCC 2998 29.6 µM | A549 23.4 µM | RXF 393 22.4 µM | ACHN 22.8 µM | A498 64.1 µM | LXFL 529 30.1 µM | SK-MEL-28 32.9 µM | OVCAR-5 25.5 µM | KM12 26.7 µM | NCI-H522 13.9 µM

CC1=Nc2ccccc2C1C(Cc1ccccc1N)c1c(C)[nH]c2ccccc12 (stereo unspecified)
inactive: SNB-19 22.7 µM | SF-295 12.6 µM | K562 19.5 µM | NCI-H460 17.2 µM | HCT-116 16.9 µM | DLD-1 18.2 µM | TK-10 16.9 µM | HCC 2998 15.4 µM | A549 18.3 µM | RXF 393 20.2 µM | ACHN 15.2 µM | A498 16 µM | LXFL 529 16 µM | SK-MEL-28 18.8 µM | OVCAR-5 17.6 µM | KM12 16.6 µM | NCI-H522 14 µM

Cc1cc(C)c(S(=O)(=O)ONC(=O)OC(C)(C)C)c(C)c1
inactive: SNB-19 > 100 µM | SF-295 > 100 µM | K562 > 100 µM | NCI-H460 > 100 µM | HCT-116 > 100 µM | DLD-1 > 100 µM | TK-10 > 100 µM | HCC 2998 > 100 µM | A549 > 100 µM | RXF 393 > 100 µM | ACHN > 100 µM | A498 > 100 µM | LXFL 529 > 100 µM | SK-MEL-28 > 100 µM | OVCAR-5 > 100 µM | KM12 > 100 µM | NCI-H522 > 100 µM

COC1=CC(=O)[C@]2(C)[C@H](C1=O)C(C)[C@H]2c1ccc(OC)cc1 (stereo partly specified)
inactive: SNB-19 > 100 µM | SF-295 > 100 µM | K562 > 100 µM | NCI-H460 > 100 µM | DLD-1 > 100 µM | TK-10 > 100 µM | HCC 2998 > 100 µM | A549 > 100 µM | RXF 393 > 100 µM | ACHN > 100 µM | A498 > 100 µM | LXFL 529 > 100 µM | SK-MEL-28 > 100 µM | OVCAR-5 > 100 µM | KM12 > 100 µM | NCI-H522 > 100 µM

C[Si](C)(C)/N=C1\N2C(=NC1(C(F)(F)F)C(F)(F)F)Sc1ccccc12
inactive: SNB-19 > 50 µM | SF-295 > 50 µM | K562 > 50 µM | NCI-H460 > 50 µM | HCT-116 > 50 µM | DLD-1 > 50 µM | TK-10 > 50 µM | HCC 2998 > 50 µM | A549 > 50 µM | RXF 393 > 50 µM | ACHN > 50 µM | A498 > 50 µM | LXFL 529 > 50 µM | OVCAR-5 > 50 µM | KM12 > 50 µM | NCI-H522 > 50 µM

NC(=O)C(=O)C1CCC2=C(Sc3ccccc3N2)C1=O (stereo unspecified)
inactive: SNB-19 > 100 µM | K562 > 100 µM | NCI-H460 > 100 µM | HCT-116 > 100 µM | DLD-1 > 100 µM | TK-10 > 100 µM | HCC 2998 > 100 µM | A549 > 100 µM | RXF 393 > 100 µM | ACHN > 100 µM | A498 > 100 µM | LXFL 529 > 100 µM | SK-MEL-28 > 100 µM | OVCAR-5 > 100 µM | KM12 > 100 µM | NCI-H522 37.5 µM
